The values that follow come from patent US12629357B2, “Treatment of viral infections, of organ injury, and of related conditions using a HIF prolyl hydroxylase inhibitor or a HIF-alpha stabilizer” (Akebia Therapeutics, Inc., priority 2020, dated 2026).

The test system of the experiment is hospitalized patients with coronavirus disease 2019 (COVID-19). Nature of the experiment: multicenter, randomized, double-blind, placebo-controlled Bayesian adaptive clinical trial for prevention and treatment of ARDS. It is filed as in vivo, human. The source says: This example describes use of 5-(3-chlorophenyl)-3-hydroxypyridine-2-carbonyl] amino} acetic acid (vadadustat) in a multicenter, randomized, double-blind, placebo-controlled Bayesian adaptive clinical for the prevention and treatment of acute respiratory distress syndrome (ARDS) in hospitalized patients with coronavirus disease 2019 (COVID-19).
Inclusion criteria may include any or all of the following: • 1. Men and women ≥18 years of age. • 2. Laboratory-confirmed diagnosis of COVID-19 by detection of SARS-CoV-2 RNA by RT-PCR (reverse transcription polymerase chain reaction) from any specimen respiratory. • 3. Admitted to the hospital. • 4. Within 24 hours of hospital admission. • 5. Oxygen saturation of hemoglobin by pulse oximetry at room air ≤94%. • 6. Participation in any other clinical trial for the treatment for COVID-19 is not allowed. • 7. Understands the procedures and requirements of treatment and provides written informed consent and authorization for protected health information disclosure.
• 1. Males with hemoglobin >17.5 g/dL or females >15.5 g/dL. • 2. Hypersensitivity to vadadustat or any of its excipients. • 3. Placed on mechanical ventilation before randomization. • 4. Hemoglobin above the gender specific upper limit of normal (ULN) at randomization. • 5. Aspartate aminotransferase (AST), alanine aminotransferase (ALT), or total bilirubin >2.0×ULN at randomization. • 6. Patients who have erythrocytosis or polycethemia vera. • 7. Patients receiving any of the following medications: sulfasalazine or other BCRP substrates, probenecid or other UGT and OAT1/3 inhibitors. • 8. Women who are pregnant or breastfeeding, or positive pregnancy test before randomization. • 9. Patients on maintenance dialysis. • 10. Patients who have received a solid organ transplant. • 11. Patients who are prisoners.
Following screening, patients are randomized in a 1:1 ratio to either vadadustat 900 mg or placebo. Randomination is stratified by site, and MSOFA score at baseline (<4 and ≥4).
A subject may receive vadadustat (e.g., 900 mg vadadustat as 6 tablets once daily) for 14 days and without regard for meals at approximately the same time each day. Tablets can be crushed using a pill crusher and administered to an intubated patient through a nasogastric tube.
For example, the efficacy of vadadustat (e.g., 900 mg per day) for the prevention and treatment of ARDS among COVID-19 patients may be measured by ≥1 point deterioration on the NIAID ordinal scale for clinical improvement at day seven or day 14 of treatment.
Efficacy may also be assessed according to any of the following (including any combination thereof): • 1. The proportion of patients at day 14 who are dead (8) or hospitalized, on invasive mechanical ventilation or ECMO (7) or hospitalized, on non-invasive ventilation or high flow oxygen devices (6) on the NIAID-OS. • 2. Proportions of patients with a score of 0 at 14 days on the MSOFA (Modified Sequential Organ Failure Assessment) scale:
• 3. Average MSOFA scores at day 7 and day 14. • 4. Proportion of patients who develop ARDS or experienced increased ARDS severity from baseline based on the Berlin scale. • 5. Ventilator-free survival at day 7 and day 14. • 6. Overall survival at day 7 and day 14. • 7. Proportion of patients with hypotension (MAP (Mean Arterial Pressure)<70 mm Hg or requirement for inotropes or vasopressors to maintain blood pressure) at day 7 and day 14. • 8. Proportion of patients with acute kidney injury at day 7 and day 14. • 9. Time to hospital discharge.

Setting [1] is: vadadustat 900 mg once daily for 14 days compared to placebo, day 7 and day 14.

As for `O=C(O)CNC(=O)c1ncc(-c2cccc(Cl)c2)cc1O` [vadadustat, {[5-(3-chlorophenyl)-3-hydroxypyridine-2-carbonyl]amino}acetic acid], the “proportion of patients who develop ARDS or experienced increased ARDS severity from baseline based on the Berlin scale” value (vadadustat 900 mg once daily for 14 days compared to placebo) is “a lower or a reduction”. In addition, under “vadadustat 900 mg once daily for 14 days compared to placebo, 14 days”, the “proportions of patients with a score of 0 at 14 days on the MSOFA” value is “an increase”. Under setting [1], the “average MSOFA scores at day 7 and day 14” value is recorded as “a lower or a reduction”; the “number of overall survival at day 7 and day 14” value is “a greater or an increase”; the “number of ventilator-free survival at day 7 and day 14” value is “a greater or an increase”; the “proportion of patients with hypotension (MAP <70 mm Hg or requirement for inotropes or vasopressors to maintain blood pressure) at day 7 and day 14” value is reported as “a lower or a reduction”. For the same compound, the “time to hospital discharge” value (vadadustat 900 mg once daily for 14 days versus placebo) is on record as “a shorter or a reduction”. The “proportion of patients with acute kidney injury at day 7 and day 14” value (vadadustat 900 mg once daily for 14 days versus placebo, day 7 and day 14) is on record as “a lower or a reduction”.
